In the supplement of paper PMC11061612:

How the values were obtained:
Assay in all cases: combination Emax (second highest fraction inhibited in the dose matrix, 72 h); higher = more inhibition; extreme values may be limits of the assay
[1] = system: HT-3 (Cervical Carcinoma)
In short: (§1)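 Cell lines grown in DMEM/F12 or RPMI with 10% FBS were plated in 1536-well plates and held 24 hours at 37°C, 5% CO2 before 72 hours of exposure to two-drug dose matrices, with DMSO typically at 0.2%. CellTiter-Glo 2.0 luminescence gave viability, which was converted to inhibition. Vehicle wells were set to 0 and blank wells to 1. Combination Emax is the second-highest inhibition in the matrix, and Bliss excess is the observed combination effect minus the expected EA + EB − EA·EB, where EA and EB are the single-agent effects.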

[2] = system: C32 (Melanoma)
In short: as §1

[3] = system: SBC-5 (Small Cell Lung Carcinoma)
In short: as §1

[4] = system: HT-144 (Melanoma)
In short: as §1

[5] = system: SK-MEL-24 (Melanoma)
In short: as §1

[6] = system: MDA-MB-175-VII (Breast Carcinoma)
In short: as §1

[7] = system: OVKATE (Ovarian Carcinoma)
In short: as §1

[8] = system: TK (B-Cell Non-Hodgkin's Lymphoma)
In short: as §1

[9] = system: C2BBe1 (Colorectal Carcinoma)
In short: as §1

[10] = system: SK-N-DZ (Neuroblastoma)
In short: as §1

[11] = system: SW1463 (Colorectal Carcinoma)
In short: as §1

[12] = system: GCIY (Gastric Carcinoma)
In short: as §1

[13] = system: DK-MG (Glioblastoma)
In short: as §1

[14] = system: NCI-H1435 (Non-Small Cell Lung Carcinoma)
In short: as §1

[15] = system: NCI-H1975 (Lung Adenocarcinoma)
In short: as §1

[16] = system: SCC90 (Head and Neck Carcinoma)
In short: as §1

[17] = system: NTERA-2-cl-D1 (Other Solid Carcinomas)
In short: as §1

[18] = system: NCI-H1048 (Small Cell Lung Carcinoma)
In short: as §1

[19] = system: BC-1 (B-Cell Non-Hodgkin's Lymphoma)
In short: as §1

SMILES | combination Emax [1] | combination Emax [2] | combination Emax [3] | combination Emax [4] | combination Emax [5] | combination Emax [6] | combination Emax [7] | combination Emax [8] | combination Emax [9] | combination Emax [10] | combination Emax [11] | combination Emax [12] | combination Emax [13] | combination Emax [14] | combination Emax [15] | combination Emax [16] | combination Emax [17] | combination Emax [18] | combination Emax [19]
Cc1c2c(nn1C)CSCc1cc(n(C)n1)CSc1cc(c3ccccc3c1)OCCCc1c(C(=O)O)n(C)c3c-2c(Cl)ccc13 [AZD5991] + C[C@@H](Nc1cc(F)cc(F)c1)c1cc(C(=O)N(C)C)cc2c(=O)cc(N3CCOCC3)oc12 [AZD8186] (first compound max 1 µM, 7x7, partner max 3 µM) | 0.482 | 0.251 | 0.845 | 0.901 | 0.388 | 0.313 | 0.353 | 0.112 | 0.335 | 0.232 | 0.188 | 0.565 | 0.849 | 0.276 | 0.431 | 0.903 | 0.682 | 0.965 | 1
Cc1c2c(nn1C)CSCc1cc(n(C)n1)CSc1cc(c3ccccc3c1)OCCCc1c(C(=O)O)n(C)c3c-2c(Cl)ccc13 [AZD5991] + Cc1cc2ncnn2cc1Nc1ncc2c(n1)n(C1CCOCC1)c(=O)n2C [AZD7648] (first compound max 1 µM, 7x7, partner max 10 µM) | 0.353 | 0.198 | 0.419 | 0.885 | 0.232 | 0.263 | 0.284 | 0.204 | 0.356 | 0.207 | 0.223 | 0.526 | 0.509 | 0.211 | 0.46 | 0.937 | 0.662 | 0.988 | 1
C[C@@H]1COCCN1c1cc(C2([S@](C)(=N)=O)CC2)nc(-c2ccnc3[nH]ccc23)n1 [AZD6738] + O=C(c1cc(Cc2n[nH]c(=O)c3ccccc23)ccc1F)N1CCN(C(=O)C2CC2)CC1 [Olaparib] (first compound max 10 µM, 7x7, partner max 10 µM) | 0.697 | 0.694 | 0.789 | 0.859 | 0.551 | 0.352 | 0.305 | 0.878 | 0.331 | 0.915 | 0.951 | 0.811 | 0.316 | 0.212 | 0.354 | 0.48 | 0.894 | 0.786 | 0.939
CC(=O)Nc1cccc(-n2c(=O)n(C3CC3)c(=O)c3c(Nc4ccc(I)cc4F)n(C)c(=O)c(C)c32)c1 [Trametinib] + Cc1nc(-c2cn3c(n2)-c2ccc(-c4cnn(C(C)(C)C(N)=O)c4)cc2OCC3)n(C(C)C)n1 [Taselisib] (first compound max 1 µM, 7x7, partner max 10 µM) | 0.673 | 1 | 0.784 | 1 | 0.997 | 1 | 0.583 | 0.169 | 0.916 | 0.521 | 0.785 | 0.99 | 0.969 | 0.896 | 0.96 | 0.997 | 0.666 | 1 | 0.546
CC1(C)CCC(CN2CCN(c3ccc(C(=O)NS(=O)(=O)c4ccc(NCC5CCOCC5)c([N+](=O)[O-])c4)c(Oc4cnc5[nH]ccc5c4)c3)CC2)=C(c2ccc(Cl)cc2)C1 [Venetoclax] + C1CN(CCC1(C(=O)N[C@@H](CCO)C2=CC=C(C=C2)Cl)N)C3=NC=NC4=C3C=CN4 [Capivasertib] (first compound max 1 µM, 7x7, partner max 3 µM) | 0.0784 | 0.356 | 0.188 | 0.383 | 0.361 | 0.393 | 0.199 | 0.996 | 0.362 | 0.307 | 0.11 | 0.442 | 0.301 | 0.154 | 0.562 | 0.813 | 0.692 | 0.679 | 0.523
CC1(C)CCC(CN2CCN(c3ccc(C(=O)NS(=O)(=O)c4ccc(NCC5CCOCC5)c([N+](=O)[O-])c4)c(Oc4cnc5[nH]ccc5c4)c3)CC2)=C(c2ccc(Cl)cc2)C1 [Venetoclax] + C=CCn1c(=O)c2cnc(Nc3ccc(N4CCN(C)CC4)cc3)nc2n1-c1cccc(C(C)(C)O)n1 [AZD1775] (first compound max 1 µM, partner max 1 µM) | 0.191 | 0.546 | 0.459 | 0.509 | 0.401 | 0.444 | 0.381 | 1 | 0.39 | 0.999 | 0.36 | 0.824 | 0.452 | 0.35 | 0.393 | 0.838 | 0.856 | 0.92 | 1
CC1(C)CCC(CN2CCN(c3ccc(C(=O)NS(=O)(=O)c4ccc(NCC5CCOCC5)c([N+](=O)[O-])c4)c(Oc4cnc5[nH]ccc5c4)c3)CC2)=C(c2ccc(Cl)cc2)C1 [Venetoclax] + CCN(CCO)CCCOc1ccc2c(Nc3cc(CC(=O)Nc4cccc(F)c4)[nH]n3)ncnc2c1 [AZD2811] (first compound max 1 µM, 7x7, partner max 1 µM) | 0.178 | 0.385 | 0.266 | 0.266 | 0.248 | 0.23 | 0.153 | 1 | 0.214 | 0.552 | 0.157 | 0.386 | 0.283 | 0.161 | 0.216 | 0.552 | 0.831 | 0.73 | 0.674
CC1(C)CCC(CN2CCN(c3ccc(C(=O)NS(=O)(=O)c4ccc(NCC5CCOCC5)c([N+](=O)[O-])c4)c(Oc4cnc5[nH]ccc5c4)c3)CC2)=C(c2ccc(Cl)cc2)C1 [Venetoclax] + CN(C)CCCOc1ccc(-c2ccc3ncc4c(c3c2)n(C2CCOCC2)c(=O)n4C)cn1 [AZD0156] (first compound max 1 µM, 7x7, partner max 1 µM) | 0.145 | 0.413 | 0.163 | 0.217 | 0.281 | 0.174 | 0.208 | 0.969 | 0.253 | 0.256 | 0.0973 | 0.403 | 0.292 | 0.17 | 0.216 | 0.324 | 0.755 | 0.178 | 0.555
CC1(C)CCC(CN2CCN(c3ccc(C(=O)NS(=O)(=O)c4ccc(NCC5CCOCC5)c([N+](=O)[O-])c4)c(Oc4cnc5[nH]ccc5c4)c3)CC2)=C(c2ccc(Cl)cc2)C1 [Venetoclax] + COc1cc(Nc2ncc3c(n2)-c2ccc(Cl)cc2C(c2c(F)cccc2OC)=NC3)ccc1C(=O)O [Alisertib] (first compound max 1 µM, 7x7, partner max 10 µM) | 0.0652 | 0.487 | 0.615 | 0.358 | 0.401 | 0.238 | 0.311 | 1 | 0.516 | 0.888 | 0.656 | 0.94 | 0.443 | 0.287 | 0.469 | 0.687 | 0.954 | 0.948 | 0.943
CC1(C)CCC(CN2CCN(c3ccc(C(=O)NS(=O)(=O)c4ccc(NCC5CCOCC5)c([N+](=O)[O-])c4)c(Oc4cnc5[nH]ccc5c4)c3)CC2)=C(c2ccc(Cl)cc2)C1 [Venetoclax] + C[C@@H]1COCCN1C2=NC(=NC(=C2)C3(CC3)[S@](=N)(=O)C)C4=C5C=CNC5=NC=C4 [AZD6738] (first compound max 1 µM, 7x7, partner max 10 µM) | 0.452 | 0.666 | 0.792 | 0.718 | 0.454 | 0.251 | 0.407 | 1 | 0.461 | 0.946 | 0.411 | 0.879 | 0.336 | 0.177 | 0.433 | 0.373 | 0.881 | 0.7 | 0.933
CC1(C)CCC(CN2CCN(c3ccc(C(=O)NS(=O)(=O)c4ccc(NCC5CCOCC5)c([N+](=O)[O-])c4)c(Oc4cnc5[nH]ccc5c4)c3)CC2)=C(c2ccc(Cl)cc2)C1 [Venetoclax] + C[C@@H](Nc1cc(F)cc(F)c1)c1cc(C(=O)N(C)C)cc2c(=O)cc(N3CCOCC3)oc12 [AZD8186] (first compound max 1 µM, 7x7, partner max 3 µM) | 0.0586 | 0.26 | 0.163 | 0.159 | 0.321 | 0.315 | 0.262 | 1 | 0.318 | 0.256 | 0.152 | 0.641 | 0.372 | 0.203 | 0.22 | 0.29 | 0.805 | 0.504 | 0.264
CC1(C)CCC(CN2CCN(c3ccc(C(=O)NS(=O)(=O)c4ccc(NCC5CCOCC5)c([N+](=O)[O-])c4)c(Oc4cnc5[nH]ccc5c4)c3)CC2)=C(c2ccc(Cl)cc2)C1 [Venetoclax] + Cc1cc2ncnn2cc1Nc1ncc2c(n1)n(C1CCOCC1)c(=O)n2C [AZD7648] (first compound max 1 µM, 7x7, partner max 10 µM) | 0.135 | 0.396 | 0.212 | 0.222 | 0.248 | 0.243 | 0.28 | 0.967 | 0.278 | 0.399 | 0.0854 | 0.558 | 0.265 | 0.165 | 0.392 | 0.351 | 0.743 | 0.59 | 0.516
